Measurements published in publication PMC11728001, “Design, Synthesis, and Biological Evaluation of Novel Urea-Containing Carnosic Acid Derivatives with Anticancer Activity” (International Journal of Molecular Sciences, 2024).
Where two headings read alike, the source gives them in different places.

Tests used:
[1] = tested on: HCT116 colorectal cancer cell line; experiment: MTT cell viability assay, HCT116; format: cell-based; settings: Homo sapiens, HCT-116, 72 h incubation, mean ± SD
Procedure: The antiproliferative activity of CA 1 and its derivatives was evaluated against a colorectal cancer (CRC) cell line (HCT116) using the MTT assay. The anticancer drug cisplatin was used as the reference drug.
(§1) The effect of the compounds on cell viability was evaluated using the MTT assay. HCT116 (3000 cells/well), SW620 (8000 cells/well), SW480 (6000 cells/well), Caco-2 (4000 cells/well), A375 (1500 cells/well), MiaPaca-2 (2000 cells/well), and BJ (10,000 cells/well) cells were seeded in 96-well plates. After 24 h, the growth medium was replaced with a fresh medium containing the desired concentration of the compound or DMSO (control). After 72 h of incubation, the supernatant was removed and 100 µL of a mixture (1:1) of filtered MTT solution (1 mg/mL in PBS) with FBS-free medium was added to each well. After 1 h of incubation at 37 °C, the mixture was removed and 100 µL of DMSO was added to each well to dissolve the formed formazan crystals. Absorbance was immediately measured at 570 nm using a Benchmark Plus Microplate Reader (Bio-Rad Laboratories, Hercules, CA, USA). IC50 values were calculated using GraphPad Prism 9 software (GraphPad Software, San Diego, CA, USA) and expressed as the mean ± standard deviation (SD) of at least three independent experiments.

SW480 cells = experiment: MTT cell viability assay, SW480; format: cell-based; settings: Homo sapiens, 72 h incubation, mean ± SD
Procedure: as §1

SW620 cells [2] = experiment: MTT cell viability assay, SW620; format: cell-based; settings: Homo sapiens, SW-620, 72 h incubation, mean ± SD
Procedure: as §1

Caco-2 cells = experiment: MTT cell viability assay, Caco-2; format: cell-based; settings: Homo sapiens, 72 h incubation, mean ± SD
Procedure: as §1

A375 melanoma cells [3] = experiment: MTT cell viability assay, A375; format: cell-based; settings: Homo sapiens, A-375, 72 h incubation, mean ± SD
Procedure: as §1

[4] = tested on: MiaPaca-2 pancreatic cancer cells; experiment: MTT cell viability assay, MiaPaca-2; format: cell-based; settings: Homo sapiens, MIA PaCa-2, 72 h incubation, mean ± SD
Procedure: as §1

[5] = tested on: HCT116 colorectal cancer cell line; set-up: method as in PMID 29922789; settings: MTT, 72 h; obtained previously by the research group, same methodology; cited from earlier work
SW620 cells [6] = tested on: SW620 cells; set-up: method as in PMID 31909511; settings: obtained previously by the research group, same methodology; cited from earlier work
A375 melanoma cells [7] = tested on: A375 melanoma cells; set-up: method as in PMID 23229057; settings: from literature, same methodology; cited from earlier work
[8] = tested on: MiaPaca-2 pancreatic cancer cells; set-up: method as in PMID 18007390; settings: from literature, same methodology; cited from earlier work
[9] = tested on: BJ non-tumoral fibroblast cell line; set-up: method as in PMID 41058673; settings: obtained previously by the research group, same methodology; cited from earlier work

## CC(C)c1cc2c(c(O)c1O)[C@@]1(C(=O)O)CCCC(C)(C)[C@@H]1CC2 [CA 1, Carnosic acid]
[1]
  IC50: 42 ± 4 µM
SW480 cells
  IC50: 21.8 ± 0.7 µM
SW620 cells [2]
  IC50: 18 ± 2 µM
Caco-2 cells
  IC50: 34 ± 2 µM
A375 melanoma cells [3]
  IC50: 27.6 ± 0.5 µM
[4]
  IC50: 21 ± 2 µM

## CC(=O)Oc1c(C(C)C)cc2c(c1OC(C)=O)[C@@]1(NC(=O)NCC(C)(C)CN(C)C)CCCC(C)(C)[C@@H]1CC2 [Compound 11, (4bR,8aS)-4b-(3-(3-(dimethylamino)-2,2-dimethylpropyl)ureido)-2-isopropyl-8,8-dimethyl-4b,5,6,7,8,8a,9,10-octahydrophenanthrene-3,4-diyl diacetate]
[1]
  IC50: 30 ± 1 µM

## CC(=O)Oc1c(C(C)C)cc2c(c1OC(C)=O)[C@@]1(NC(=O)NCC3(C)COC3)CCCC(C)(C)[C@@H]1CC2 [Compound 20, (4bR,8aS)-2-isopropyl-8,8-dimethyl-4b-(3-((3-methyloxetan-3-yl)methyl)ureido)-4b,5,6,7,8,8a,9,10-octahydrophenanthrene-3,4-diyl diacetate]
[1]
  IC50: 46 ± 2 µM

## CC(=O)Oc1c(C(C)C)cc2c(c1OC(C)=O)[C@@]1(NC(=O)NCC3CCOCC3)CCCC(C)(C)[C@@H]1CC2 [Compound 18, (4bR,8aS)-2-isopropyl-8,8-dimethyl-4b-(3-((tetrahydro-2H-pyran-4-yl)methyl)ureido)-4b,5,6,7,8,8a,9,10-octahydrophenanthrene-3,4-diyl diacetate]
[1]
  IC50: 51 ± 5 µM

## CC(=O)Oc1c(C(C)C)cc2c(c1OC(C)=O)[C@@]1(NC(=O)NCCc3ccccc3)CCCC(C)(C)[C@@H]1CC2 [Compound 13, (4bR,8aS)-2-isopropyl-8,8-dimethyl-4b-(3-phenethylureido)-4b,5,6,7,8,8a,9,10-octahydrophenanthrene-3,4-diyl diacetate]
[1]
  IC50: 14 ± 2 µM
SW480 cells
  IC50: 8.6 ± 0.3 µM
SW620 cells [2]
  IC50: 9 ± 1 µM
Caco-2 cells
  IC50: 10.9 ± 0.6 µM

## CCCNC(=O)N[C@]12CCCC(C)(C)[C@@H]1CCc1cc(C(C)C)c(OC(C)=O)c(OC(C)=O)c12 [Compound 8, (4bR,8aS)-2-isopropyl-8,8-dimethyl-4b-(3-propylureido)-4b,5,6,7,8,8a,9,10-octahydrophenanthrene-3,4-diyl diacetate]
[1]
  IC50: 31 ± 1 µM

## CCCCN(C)C(=O)N[C@]12CCCC(C)(C)[C@@H]1CCc1cc(C(C)C)c(OC(C)=O)c(OC(C)=O)c12 [Compound 9, (4bR,8aS)-4b-(3-butyl-3-methylureido)-2-isopropyl-8,8-dimethyl-4b,5,6,7,8,8a,9,10-octahydrophenanthrene-3,4-diyl diacetate]
[1]
  IC50: 22 ± 1 µM

## N.N.[Cl][Pt][Cl] [Cisplatin, cisplatin]
[5]
  IC50: 21 ± 1 µM
SW620 cells [6]
  IC50: 1400 ± 500 nM
A375 melanoma cells [7]
  IC50: 3000 ± 1000 nM
[8]
  IC50: 5 ± 1 µM
[9]
  IC50: 10 ± 2 µM

## CONC(=O)N[C@]12CCCC(C)(C)[C@@H]1CCc1cc(C(C)C)c(OC(C)=O)c(OC(C)=O)c12 [Compound 12, (4bR,8aS)-2-isopropyl-4b-(3-methoxyureido)-8,8-dimethyl-4b,5,6,7,8,8a,9,10-octahydrophenanthrene-3,4-diyl diacetate]
[1]
  IC50: 41 ± 3 µM

## CCNC(=O)N[C@]12CCCC(C)(C)[C@@H]1CCc1cc(C(C)C)c(OC(C)=O)c(OC(C)=O)c12 [Compound 7, (4bR,8aS)-4b-(3-Ethylureido)-2-isopropyl-8,8-dimethyl-4b,5,6,7,8,8a,9,10-octahydrophenanthrene-3,4-diyl diacetate]
[1]
  IC50: 44 ± 4 µM

## CC(=O)Oc1c(C(C)C)cc2c(c1OC(C)=O)[C@@]1(N=C=O)CCCC(C)(C)[C@@H]1CC2 [Compound 5, (4bR, 8aS)-4b-Isocyanato-2-isopropyl-8,8-dimethyl-4b,5,6,7,8,8a,9,10-octahydrophenanthrene-3,4-diyl diacetate]
[1]
  IC50: 28 ± 3 µM

## CNC(=O)N[C@]12CCCC(C)(C)[C@@H]1CCc1cc(C(C)C)c(OC(C)=O)c(OC(C)=O)c12 [Compound 6, (4bR,8aS)-2-isopropyl-8,8-dimethyl-4b-(3-methylureido)-4b,5,6,7,8,8a,9,10-octahydrophenanthrene-3,4-diyl diacetate]
[1]
  IC50: 55 ± 5 µM

## CC(=O)Oc1c(C(C)C)cc2c(c1OC(C)=O)[C@@]1(NC(=O)NC3COC3)CCCC(C)(C)[C@@H]1CC2 [Compound 19, (4bR,8aS)-2-isopropyl-8,8-dimethyl-4b-(3-(oxetan-3-yl)ureido)-4b,5,6,7,8,8a,9,10-octahydrophenanthrene-3,4-diyl diacetate]
[1]
  IC50: > 60 µM

## CC(=O)Oc1c(C(C)C)cc2c(c1OC(C)=O)[C@@]1(NC(=O)NCc3ccoc3)CCCC(C)(C)[C@@H]1CC2 [Compound 17, (4bR,8aS)-4b-(3-(furan-3-ylmethyl)ureido)-2-isopropyl-8,8-dimethyl-4b,5,6,7,8,8a,9,10-octahydrophenanthrene-3,4-diyl diacetate]
[1]
  IC50: 21 ± 2 µM

## CC(=O)Oc1c(C(C)C)cc2c(c1OC(C)=O)[C@@]1(NC(=O)NCc3ccncc3)CCCC(C)(C)[C@@H]1CC2 [Compound 15, (4bR,8aS)-2-isopropyl-8,8-dimethyl-4b-(3-(pyridin-4-ylmethyl)ureido)-4b,5,6,7,8,8a,9,10-octahydrophenanthrene-3,4-diyl diacetate]
[1]
  IC50: 33 ± 2 µM

## CC(=O)Oc1c(C(C)C)cc2c(c1OC(C)=O)[C@@]1(NC(=O)NCCCN(C)c3ccccc3)CCCC(C)(C)[C@@H]1CC2 [Compound 16, (4bR,8aS)-2-isopropyl-8,8-dimethyl-4b-(3-(3-(methyl(phenyl)amino)propyl)ureido)-4b,5,6,7,8,8a,9,10-octahydrophenanthrene-3,4-diyl diacetate]
[1]
  IC50: 12 ± 0.5 µM
SW480 cells
  IC50: 7.6 ± 0.6 µM
SW620 cells [2]
  IC50: 6.4 ± 0.4 µM
Caco-2 cells
  IC50: 9.6 ± 0.6 µM
A375 melanoma cells [3]
  IC50: 7.6 ± 0.6 µM
[4]
  IC50: 9.3 ± 0.4 µM

## CC(=O)Oc1c(C(C)C)cc2c(c1OC(C)=O)[C@@]1(C(=O)O)CCCC(C)(C)[C@@H]1CC2 [Compound 2, (4aR,10aS)-5,6-Diacetoxy-7-isopropyl-1,1-dimethyl-1,3,4,9,10,10a-hexahydrophenanthrene-4a(2H)-carboxylic acid]
[1]
  IC50: 44 ± 4 µM

## CC(=O)Oc1c(C(C)C)cc2c(c1OC(C)=O)[C@@]1(NC(=O)NCC(C)C)CCCC(C)(C)[C@@H]1CC2 [Compound 10, (4bR,8aS)-4b-(3-isobutylureido)-2-isopropyl-8,8-dimethyl-4b,5,6,7,8,8a,9,10-octahydrophenanthrene-3,4-diyl diacetate]
[1]
  IC50: 22 ± 2 µM
